Reference: publication PMC5171792 (Scientific Reports, 2016)
Like-named read-outs stand apart in the source and are kept apart here.

Legend:
H1N1 NA = H1N1 NA (Influenza A virus (H1N1), UniProt C3W5S3); experiment: biochemical; format: biochemical
[1] = system: A/Malaysia/Muar/33/2009 (H1N1); experiment: Antiviral (virus inhibition) assay in MDCK cells, plaque reduction; format: cell-based; conditions: Influenza A virus
in vitro = conditions: dog
MDCK cells [2] = experiment: Cell cytotoxicity, cell proliferation assay with WST-1 reagent
MDCK cells [3] = system: MDCK cells

Row | SMILES | ΔGbind (estimated experimental) (H1N1 NA) [kcal/mol] | EC50 [1] [µM] | CC50 (in vitro) [µM] | also measured
1 | CCCOC(=O)/C=C/c1cc(OC)c(O)c([N+](=O)[O-])c1 [MY14] | -4.76 | – | – | –
2 | COc1cc(/C=C/C(=O)O)ccc1O [FA, Ferulic acid, reference compound] | -5.02 | 1.32 ± 0.08 | – | inhibition at 125 µg/mL (H1N1 NA; read-out: % inhibition of H1N1 NA): 86%; CC50 (in vitro; MDCK cells): 702 µM; toxicity on the MDCK cells (MDCK cells [2]): without showing any signs of toxicity at high concentrations
3 | COc1c(O)ccc(/C=C/C(=O)O)c1[N+](=O)[O-] [MY24] | -4.31 | – | – | melting point: 165 to 169 °C
4 | CCOC(=O)/C=C/c1cc(OC)c(OC(C)C)c([N+](=O)[O-])c1 [MY3] | -5.27 | 7.5 ± 9.3 | 321 | toxicity on the MDCK cells (MDCK cells [3]): without showing any signs of toxicity at high concentrations
5 | CCCCOC(=O)/C=C/c1cc(OC)c(O)c([N+](=O)[O-])c1 [MY15] | -3.91 | ~0.95 | 352 | toxicity on the MDCK cells (MDCK cells [3]): without showing any signs of toxicity at high concentrations
6 | COc1cc(C=O)cc(NCCO)c1O [MY22] | -4.67 | – | – | –
7 | CC(=O)N[C@H]1[C@H]([C@H](O)[C@H](O)CO)OC(C(=O)O)=C[C@@H]1O [DANA, 2-deoxy-2,3-didehydro-N-acetylneuraminic acid, reference compound] | -6.50 | – | – | –
8 | COC(=O)/C=C/c1ccc(O)c(OC)c1 [MY9] | -4.85 | – | – | –
9 | CCOC(=O)/C=C/c1cc(OC)c(O)c([N+](=O)[O-])c1 [MY2] | -4.70 | – | – | –
10 | CCCCOC(=O)/C=C/c1ccc(O)c(OC)c1 [MY12] | -3.91 | – | – | –
11 | COc1cc(C=O)cc(N=C(N)N)c1O [MY21, guanidino vanillin] | -5.60 | 1.7 ± 0.02 | 478 | toxicity on the MDCK cells (MDCK cells [3]): without showing any signs of toxicity at high concentrations
12 | COc1cc(C=O)cc(O)c1O [MY23, 3-hydroxyvanillin] | -5.43 | 40.5 ± 3.7 | 601 | % inhibition of H1N1 NA (H1N1 NA): high inhibition; toxicity on the MDCK cells (MDCK cells [3]): significant reduction in cell viability
13 | COC(=O)/C=C/c1cc(OC)c(O)c([N+](=O)[O-])c1 [MY13] | -4.19 | – | – | –
14 | COc1cccc(S(=O)(=O)c2ccc(/C=C/C(=O)O)cc2OC)c1 [MY18] | -3.91 | – | – | –
15 | CCOC(=O)/C=C/c1ccc(O)c(OC)c1 [MY10] | -4.42 | – | – | –
16 | CCCOC(=O)/C=C/c1ccc(O)c(OC)c1 [MY11] | -4.36 | – | – | –
17 | CCC(CC)O[C@@H]1C=C(C(=O)O)C[C@H](N)[C@H]1NC(C)=O [Oseltamivir carboxylate, reference compound] | – | 35 | 351 | –
18 | COc1ccc(S(=O)(=O)c2ccc(/C=C/C(=O)O)cc2OC)cc1 [MY19] | -4.38 | – | – | –
19 | COc1cc(C=O)ccc1O [VN, Vanillin, reference compound] | -4.78 | 6.05 ± 4.3 | 657 | toxicity on the MDCK cells (MDCK cells [3]): without showing any signs of toxicity at high concentrations
20 | COc1cc(/C=C/C(=O)O)ccc1S(=O)(=O)c1ccc(Oc2ccccc2)cc1 [MY20] | -3.91 | – | – | –
